From a melting point compilation (Tetko et al.; mined from patent text by program, amines drawn as free bases though some values may be those of a salt)

In the case of `O=C(c1ccccc1)N1Cc2ccccc2Oc2ccc(Cl)cc21`, the melting point is reported as 103 to 106 °C. In the case of `NC(=O)Nc1cccc2c1C(=O)c1c-2n[nH]c1-c1cccs1`, the melting point is reported as 214 °C. Work on `Cn1cncc1C(O)(c1ccoc1)c1ccc2c(c1)c(-c1cccc(Cl)c1)cc(=O)n2C` (configuration not stated) yielded a melting point of 248 °C. For `CCNC(=O)NS(=O)(=O)c1cc2c(cc1OC)OCC(NC(=O)c1cc(Cl)ccc1OC)C2` (configuration not stated), the melting point was 233 to 234 °C. `Cc1cn(N=Cc2cccnc2)c(=O)n1C` gave a melting point of 186 to 187 °C. For `CCCS(=O)(=O)c1c(Cl)cnc(Cl)c1Cl`, the melting point was 73 to 78 °C. In the case of `CCCS(=O)(=O)NCc1ccc2ccn(C3CCN(CCc4ccc(F)cc4)CC3)c2c1`, the melting point is reported as 80 to 81 °C. `COc1ccccc1Oc1c(NS(=O)(=O)c2ccc(C(C)(C)C)cc2)nc(-c2ncccn2)nc1OCCOc1ccc(Br)cc1` showed a melting point of 251 to 256 °C. Work on `CCCCC(O)c1c(C(C)C)nc(C(C)C)c(CO)c1-c1ccc(F)cc1` (configuration not stated) yielded a melting point of 166 to 168 °C. Work on `Oc1ccc2cc(Cc3c(Cc4ccccc4)sc4ccccc34)ccc2c1Br` yielded a melting point of 110 to 112 °C. `CCCNS(=O)(=O)c1cc(C(=O)CCC(=O)OC)ccc1Cl` gave a melting point of 93 to 94 °C. With `CCCCc1n[nH]c(CCCC)n1` the melting point was 50.5 to 51.5 °C. Compound `CCc1nccn1Cc1ccc2c(c1)-c1[nH]nc(-c3ccsc3)c1C2` has a melting point of 238 to 239 °C. Work on `CN(CCCc1ccccc1)[C@H]1CC[C@H](c2ccc(O)cc2)CC1` yielded a melting point of 156 to 158 °C. Compound `O=C(CCC[C@H](O)c1ccc(F)cc1)N1C(=O)OC[C@@H]1c1ccccc1` has a melting point of 39.7 °C. For `COC1=NC(=O)N(C2CCCCC2)S(=O)(=O)N1`, the melting point was 173 to 177 °C. With `Cn1cc(C(F)(F)F)c(C(=O)O)c1Cl` the melting point was 197 to 198 °C. With `Nc1ccc(Cl)cc1C(O)(C#CC1CC1)C(F)(F)F` (configuration not stated) the melting point was 141 to 143 °C. With `CCOC(=O)C1=C(O)[C@H](CC2CCCCC2)NC1=O` the melting point was 176 to 180 °C. Work on `O=C1Cc2cc(NC(=O)C(=O)O)ccc2N1` yielded a melting point of 256 °C. With `CN(C)C(=O)CN1CCC(c2ccc(Nc3nc4c(-c5ccc[nH]c5=O)cccn4n3)cc2)CC1` the melting point was > 250 °C. Compound `Cc1cc(Br)cnc1NCCCNC1=NS(=O)N=C1N` (configuration not stated) has a melting point of 204 to 205 °C. `Cc1cc(C)nc(C(N)=NO)n1` gave a melting point of 209 °C. Work on `CCc1ccc(C=Nc2ccc(C#N)cc2)cc1` yielded a melting point of 76.2 to 77 °C. With `COc1ccc(S(=O)(=O)N2CCc3cccc(-c4ccncc4)c32)cc1` the melting point was 196 to 197 °C. `CCOC(=O)CCNC(=O)c1cn2nc(Cl)ccc2n1` showed a melting point of 132 to 134 °C. With `CCOC(=O)N1CCN(c2c(F)cc([N+](=O)[O-])c(F)c2COC)CC1` the melting point was 85 to 86 °C. Compound `Cc1ccccc1-n1c(CF)nc2ccc([N+](=O)[O-])cc2c1=O` has a melting point of 155 to 158 °C. `CC(C)n1c(=O)n(C)c(=O)c2c(S(=O)CCCO)n(Cc3cccc4ccccc34)cc21` (configuration not stated) showed a melting point of 184 to 185 °C. Work on `O=C(NC(c1ccccc1)c1cc2ccncc2[nH]1)c1cccnc1` (configuration not stated) yielded a melting point of 178 to 188 °C. Compound `Cc1ccc(S(=O)(=O)Nc2cc(C(C)C)c([N+](=O)[O-])cc2Br)cc1` has a melting point of 132 °C. Compound `O=C(O)C1CN(Cc2ccccc2)CCN1Cc1ccccc1` (configuration not stated) has a melting point of 184 to 185 °C. `CNC12CC(O)CCC1CCc1ccccc12` (configuration not stated) gave a melting point of 141 to 143 °C. In the case of `Cn1c2sc(C(=O)O)cc2c2cccc(Cl)c21`, the melting point is reported as 233 to 234 °C. For `CCOc1ccc2c(c1)C(C)=CC(C)(C)N2C(=O)Cl`, the melting point was 75.5 to 76.5 °C. With `CC1=C(C(=O)OCCN2C(=O)c3ccccc3C2=O)C(c2cccc([N+](=O)[O-])c2)C(C(=O)OCCN2C(=O)c3ccccc3C2=O)=C(C)N1` the melting point was 92 to 94 °C. `Cc1ccc(S(=O)(=O)OC2=CC3COC(O3)C2=O)cc1` (configuration not stated) gave a melting point of 81 to 86 °C. For `O=C(CCc1ccc(Br)cc1)Cn1ccnc1`, the melting point was 71 to 73 °C. In the case of `CCC[C@H]1CC[C@H](c2ncc(C(=O)O)cn2)CC1`, the melting point is reported as 184 to 186 °C. `Oc1ccc(C2(c3cccc(O)c3)c3ccccc3-c3ccccc32)cc1` gave a melting point of 221 °C. In the case of `CC(C)C1COCc2nc3c(N)nc4cc(O)ccc4c3n21` (configuration not stated), the melting point is reported as 210 to 215 °C. `CN1CCCc2ccc(NC(=O)c3cc4cc(F)ccc4n3Cc3cccc(F)c3)cc21` showed a melting point of 159 to 160 °C. `CCn1cc(C(=O)O)c(=O)c2cc(F)c(N3CCNC(c4sc5ccc(Cl)cc5c4C)C3)cc21` (configuration not stated) showed a melting point of 300 to 305 °C. `CCOC(=O)NN=Cc1c[nH]c(C)n1` gave a melting point of 210 to 212 °C. In the case of `COc1cc2c(Nc3cccc(Cl)c3F)ncnc2cc1OC1CCN(C(=O)CC(C)(C)O)CC1`, the melting point is reported as 196 to 199 °C. Compound `C=CCSc1cn(C)cc(-c2cccc(C(F)(F)F)c2)c1=O` has a melting point of 74 to 75 °C. `COCOc1cc(F)ccc1-c1cc(-c2cccc(C(=O)OC)c2)c(C#N)c(NC(=O)c2ccco2)n1` showed a melting point of 160 to 162 °C. `Oc1c(Cl)c(Cl)c(-c2c(Cl)c(Cl)c(O)c(Cl)c2Cl)c(Cl)c1Cl` showed a melting point of 94 to 96 °C. Compound `N#CC(c1ccc(O)cc1)c1c(Cl)cc(-n2ncc(=O)[nH]c2=O)cc1Cl` (configuration not stated) has a melting point of 210 °C. With `CC(=O)N1CC2(CCN(C(=O)Nc3nnc(-c4ccccc4)s3)CC2)c2ccccc21` the melting point was 260 °C. Compound `CCOC(=O)/C=C(/c1ccc(Cl)cc1)c1cccc(OC)c1OC` has a melting point of 82 to 84 °C. `CCC(Oc1ccc(C(C)(C)CC)cc1C(C)(C)CC)C(=O)Nc1cccc(C(=O)NC2=NN(c3c(Cl)cc(Cl)cc3Cl)C(=O)C2N2CCCCC2)c1` (configuration not stated) showed a melting point of 186 to 190 °C. Work on `COc1cc2c(Nc3ccc(Sc4nccn4C)c(Cl)c3)c(C#N)cnc2cc1N1CCN(C2CCN(C)CC2)CC1` yielded a melting point of 220 to 226 °C. For `O=C(O)CCCc1cc2cc(Cl)ccc2n1S(=O)(=O)c1ccc2c(c1)CCO2`, the melting point was 174 to 179 °C. In the case of `Clc1ccnc2cc3c(cc12)OCO3`, the melting point is reported as 130 to 132 °C. `CCOC(=O)[C@@H](Cc1ccc2ccc(C#N)cc2c1)c1ccc(O[C@H]2CCN(Cc3ccccc3)C2)cc1` showed a melting point of 95 to 95.5 °C. `O=C(Cc1cccs1)NCCCSc1ccncc1` gave a melting point of 62 to 63 °C. In the case of `S=c1[nH]nc(C=Cc2ccc3ccccc3c2)o1`, the melting point is reported as > 250 °C. Work on `CC(C)NC(Nc1cc(C(F)(F)F)cc(C(F)(F)F)c1)=C(C#N)S(=O)(=O)c1ccc(Cl)cc1` yielded a melting point of 197 to 198 °C. `COc1ccc(CCNC(=O)C(F)(F)F)cc1` gave a melting point of 74 to 77 °C. Compound `COc1cc(N)c(Cl)cc1C(=O)NC1CCN(C(C)CC(C(=O)N(C)C)(c2ccccc2)c2ccccc2)CC1O` (configuration not stated) has a melting point of 132 °C. For `Clc1c2ccccc2nc2cc(-c3ccccc3)ccc12`, the melting point was 104 to 108 °C. `C=CCOC(=O)c1cccc(NC(=O)NCC(=O)Nc2ccccc2C(=O)c2cccs2)c1` showed a melting point of 140 to 141 °C. Compound `COc1ccccc1-n1c(=O)[nH]c2c(C(N)=O)nc(-c3ccc4cc[nH]c4c3)nc21` has a melting point of 203 to 204 °C. Compound `COC(=O)c1scc(-c2ccccc2)c1N` has a melting point of 64 to 66 °C. Work on `CCOC(=O)C1Cc2ccc(NC(=O)OCc3ccccc3)cc2NC1=O` (configuration not stated) yielded a melting point of 187 to 189 °C. In the case of `Sc1nc2ncccc2[nH]1`, the melting point is reported as > 250 °C. For `COc1ccc(C(=O)Nc2cccc(-c3cccc4c3/C(=C/c3ccc[nH]3)C(=O)N4)c2)cc1`, the melting point was 209 to 211 °C. Work on `COC(=O)c1ccc(OC)c(NC(=N)c2ccc(F)cc2Cl)c1` yielded a melting point of 120 °C. Work on `CCNC(=O)c1ccc(N2CCNCC2)c(F)c1` yielded a melting point of 142 to 145 °C. Work on `Cc1ccc(S(=O)(=O)NO[Si](C)(C)C)cc1` yielded a melting point of 87 to 90 °C. Compound `COCC(O)c1cccc(S(N)(=O)=O)c1` (configuration not stated) has a melting point of 109 °C. Work on `CC(C)(C)CNC=Nc1ccc(-c2c[nH]cn2)cc1Br` yielded a melting point of 151 to 154 °C. `COc1cc(COc2ncccc2CC(=O)O)ccc1OCc1nc(-c2ccccc2)oc1C` showed a melting point of 145 to 146 °C. `N[C@@H](CO)[C@@H](O)[C@H](O)[C@H](O)CO` gave a melting point of 129 to 130 °C. `C[C@H]1[C@H](NC(=O)OC(C)(C)C)C(=O)N1OCc1ccccc1` showed a melting point of 78 °C. Work on `CNC(=O)N1CC(C)(C)NC(C)(C)CC1=O` yielded a melting point of 147 to 149 °C. In the case of `O=C(O)c1ccc(C#Cc2ccccc2)cc1OCc1ccccc1`, the melting point is reported as 125 to 127 °C. In the case of `Cn1cc(Br)nc(Nc2cccnc2)c1=O`, the melting point is reported as > 250 °C. Compound `CN1CC(CCN2CCOCC2)Oc2ncccc2C1=S` (configuration not stated) has a melting point of 152 to 153 °C. With `CCOC(=O)c1[nH]c2ccc(C[C@H]3COC(=O)N3)cc2c1CCN(C)C` the melting point was 49 to 55 °C. For `O=C(CCCN1CCN(c2ncc3ccccc3n2)CC1)c1ccc(F)cc1`, the melting point was 129 to 131 °C. In the case of `Cc1cc(C)cc(C(=O)NC(C(N)=O)n2cccn2)c1` (configuration not stated), the melting point is reported as 193 to 195 °C. Compound `CCCCc1nc(CCO)c[nH]1` has a melting point of 92 to 93 °C. Work on `CC(C)OCc1cc(O)cc2cc(-c3ccc(O)cc3)oc12` yielded a melting point of 195 to 197 °C. In the case of `Cc1cnc(S(=O)(=O)c2ccccc2)c(C)c1Cl`, the melting point is reported as 91 to 92 °C. In the case of `Cc1ccc(S(=O)(=O)OCC(O)(CC(C)c2ccccc2)C(F)(F)F)cc1` (configuration not stated), the melting point is reported as 95 to 96 °C. Compound `O=C(/C=C/C=C(c1cccc(F)c1)c1cccc(F)c1)Oc1ccc([N+](=O)[O-])cc1` has a melting point of 130 °C. For `CN1CCCC1=Cc1ccc([N+](=O)[O-])cc1[N+](=O)[O-]`, the melting point was 188 to 190 °C. For `Cn1c(-c2ccc(OC3CCN(C4CCC4)CC3)cc2)nc2ncccc2c1=O`, the melting point was 146 to 150 °C. In the case of `CCc1cc(Br)c2c(O)c(C(=O)OC)c(C(=O)OC)nc2c1`, the melting point is reported as 207 to 208 °C. Compound `CCOc1cnc(C)c(S(=O)(=O)c2ccc(OCc3ccccc3)cc2)c1` has a melting point of 133 to 134 °C. `CCc1cc(C(=O)O)c2cc(C(C)C)cccc1-2` gave a melting point of 154 to 156 °C. In the case of `CC(C)NC(=O)NC/C=C\COc1cc(CN2CCCCC2)ccn1`, the melting point is reported as 90 to 92 °C. `CSc1nnc2c(=O)[nH]c(-c3ccccc3OCC3CC3)nc2n1` gave a melting point of 235 to 236 °C. With `O=C(C1=C(c2ccccc2)c2ccc(O)cc2CC1)c1ccc(O)cc1` the melting point was 205 to 207 °C. Work on `CC1(Cl)C(=O)N(c2ccc(Cl)c(Cl)c2)N=C1C#N` (configuration not stated) yielded a melting point of 68 to 69 °C. `CC(=O)Nc1ccc(Nc2ncnc3[nH]cc(C(=O)c4ccccc4)c23)cc1` showed a melting point of 263 to 264 °C. For `CC1(C)CC(=O)C(C(=O)Nc2ccc(Cl)c(C(F)(F)F)c2)C(=O)C1`, the melting point was 128 to 131 °C. For `CCc1cccc(C)c1CNc1cc(C(=O)O)cn2c(C)nnc12`, the melting point was 328 °C. Work on `CCOC(=O)c1csc(C2CCC2)n1` yielded a melting point of 48 to 50 °C. Work on `CP(C)(=O)CCCOC(=O)c1ccccc1Nc1ccnc2cc(Cl)ccc12` yielded a melting point of 162 °C.
